{"source": "paper PMC7614683", "about": "“A small molecule PI3Kα activator for cardioprotection and neuroregeneration” (Nature, 2023)", "tested_on": "PI3Kα-KO MEFs", "assay": "Mass spectrometry-based phosphoproteomics, PI3Kα-KO MEFs", "assay_type": "cell-based, mouse", "experimental": "PI3Kα-WT and PI3Kα-KO MEFs, grown in 15 cm dishes, were serum-starved overnight in DMEM with 1% penicillin-streptomycin and stimulated by the addition of 0.05% DMSO, 5 μM 1938 in final 0.05% DMSO or 100 nM insulin (Sigma #I5016) for 15 min or 4 h. Cells were lysed in 500 μl urea lysis buffer [50 mM triethylammonium bicarbonate, 8 M urea, cOmplete™ EDTA-free protease inhibitor cocktail (1:50 dilution) (Roche #11873580001), 1 PhosSTOP tablet (Roche #4906845001) per 10 ml of lysis buffer, 1 mM sodium orthovanadate] and lysates sonicated until clear for ~10 min with cooling breaks on ice. Protein concentration was measured using a BCA protein assay (Pierce #23227). 300 μg of protein was reduced with 5 mM Tris(2-carboxyethyl)phosphine hydrochloride (Sigma #C4706) at 37°C for 20 min and alkylated using 10 mM 2-chloroacetamide (Sigma #22790) for 20 min at room temperature in the dark. Proteins were digested with LysC (#129-02541; FUJIFILM Wako Chemicals, Osaka, Japan) for 3.5 h at 30°C. Samples were then diluted with 50 mM triethylammonium bicarbonate (Sigma #T7408) to reduce the urea concentration to 1.5 M, followed by an overnight peptide digestion with trypsin (Promega #V5113) at 37°C. Digest reactions were quenched by the addition of 10% trifluoroacetic acid (EMD Millipore #302031-M) to a final pH of 2.0. Sample desalting was performed using 35-350 μg C18 columns (HMM S18V; The Nest Group, Inc., Southborough, MA, USA) according to the manufacturer’ specifications. TiO2 (Hichrome Titansphere TiO2, 10 μm capacity, 100 mg, GL Sciences #5020-75010) was used for phosphoenrichment. Following peptide loading onto TiO2, the beads were sequentially washed with 1 M glycolic acid (Sigma #124737)/80% acetonitrile/5% trifluoroacetic acid, followed by 80% acetonitrile/0.2% trifluoroacetic acid and 20% acetonitrile before elution with 5% ammonium hydroxide. Enriched samples were desalted using 7-70 μg C18 columns (HUM S18V; The Nest Group, Inc., Southborough, MA, USA) according to the manufacturer’s specifications. Dried phosphopeptide samples were stored at -80°C and resuspended in 10% formic acid immediately prior to analysis. nLC-MS/MS was performed on a Q-Exactive Orbitrap Plus interfaced to a NANOSPRAY FLEX ion source and coupled to an Easy-nLC 1000 (Thermo Scientific). Fifty percent of each sample was analysed as 10 μl injections. Peptides were separated on a 27 cm fused silica emitter, 75 μm diameter, packed in-house with Reprosil-Pur 200 C18-AQ, 2.4 μm resin (Dr. Maisch, Ammerbuch-Entringen, Germany) using a linear gradient from 5% to 30% acetonitrile/0.1% formic acid over 180 min, at a flow rate of 250 nl/min. Peptides were ionised by electrospray ionisation using 1.9 kV applied immediately prior to the analytical column via a microtee built into the nanospray source with the ion transfer tube heated to 320°C and the S-lens set to 60%. Precursor ions were measured in a data-dependent mode in the orbitrap analyser at a resolution of 70,000 and a target value of 3e6 ions. The ten most intense ions from each MS1 scan were isolated, fragmented in the HCD cell, and measured in the Orbitrap at a resolution of 17,500.\nRaw data were analysed with MaxQuant[72] (version 1.5.5.1) where they were searched against the mouse UniProt database (http://www.uniprot.org/, downloaded 04/12/2018) using default settings. Carbamidomethylation of cysteines was set as fixed modification, and oxidation of methionines, acetylation at protein N-termini, phosphorylation (on S, T or Y) were set as variable modifications. Enzyme specificity was set to trypsin with maximally 2 missed cleavages allowed. To ensure high confidence identifications, peptide-spectral matches, peptides, and proteins were filtered at a less than 1% false discovery rate (FDR). Label-free quantification in MaxQuant was used with a LFQ minimum ratio count of 2, Fast LFQ selected and the ‘skip normalisation’ option selected. […]"}
{"smiles": "CCN1CCN(c2ccc(Nc3cc(Nc4cccc5c4N(C(C)=O)CC5)ccn3)cc2)CC1", "note": "[Compound 1938]", "values": [{"measurement": "signalling impact (phosphoproteomics)", "setting": "PI3Kα-KO MEFs, 1938 5 μM", "result": "little signalling impact"}, {"measurement": "log2FC, PI3Ka KO 15’ 1938 vs PI3Ka KO DMSO", "setting": "phosphosite Cask_S544", "result": -0.1046}, {"measurement": "log2FC, PI3Ka KO 4 h 1938 vs PI3Ka KO DMSO", "setting": "phosphosite Cask_S544", "result": "NegInf"}, {"measurement": "log2FC, PI3Ka KO 15’ 1938 vs PI3Ka KO DMSO", "setting": "phosphosite Cask_S545", "result": 0.1395}, {"measurement": "log2FC, PI3Ka KO 4 h 1938 vs PI3Ka KO DMSO", "setting": "phosphosite Cask_S545", "result": 0.1333}, {"measurement": "log2FC, PI3Ka KO 15’ 1938 vs PI3Ka KO DMSO", "setting": "phosphosite Gm42715_S1683", "result": "Inf"}, {"measurement": "log2FC, PI3Ka KO 4 h 1938 vs PI3Ka KO DMSO", "setting": "phosphosite Gm42715_S1683", "result": "Inf"}]}
